Converted amounts (≈) assume the structure as drawn. “And” between values parts separate entries of the source, which are not always exact repeats. Equal values may be shown once. Read-outs that look alike come from different tables or passages of the source.
How the values were obtained:
[1] = Microsomal stability in rat liver microsomes; format: in vitro ADME
P-gp (MDR1) = biological target: T1, P-gp (MDR1) (Homo sapiens, UniProt P08183); assay: Caco-2 asymmetry, P-gp substrate; format: in vitro ADME
T1 construct: endogenous in cells; host or cells: Caco-2
Description: (§1) A Caco-2 permeability assay was performed on Compound D136.

PPB = format: in vitro ADME; conditions: for recovery: plasma
pH solubility = format: physicochemical; conditions: for solubility: aqueous buffer, OD 250 nm
hCyt P450 [2] = biological target: hCyt P450 (Homo sapiens, UniProt P10635); assay: CYP inhibition; format: in vitro ADME; conditions: CYP 2D6-Dextromethorphan
hCyt P450 [3] = biological target: hCyt P450 (Homo sapiens, UniProt P08684); assay: CYP inhibition; format: in vitro ADME
hCyt P450 [4] = biological target: hCyt P450 (Homo sapiens, UniProt P11712); assay: CYP inhibition; format: in vitro ADME; conditions: CYP 2C9-Tolbutamide
hCyt P450 [5] = biological target: T2, hCyt P450 (Homo sapiens, UniProt P10632); assay: CYP inhibition; format: in vitro ADME; conditions: CYP 2C8-Amodiaquine
T2 sequence (P10632 1-490): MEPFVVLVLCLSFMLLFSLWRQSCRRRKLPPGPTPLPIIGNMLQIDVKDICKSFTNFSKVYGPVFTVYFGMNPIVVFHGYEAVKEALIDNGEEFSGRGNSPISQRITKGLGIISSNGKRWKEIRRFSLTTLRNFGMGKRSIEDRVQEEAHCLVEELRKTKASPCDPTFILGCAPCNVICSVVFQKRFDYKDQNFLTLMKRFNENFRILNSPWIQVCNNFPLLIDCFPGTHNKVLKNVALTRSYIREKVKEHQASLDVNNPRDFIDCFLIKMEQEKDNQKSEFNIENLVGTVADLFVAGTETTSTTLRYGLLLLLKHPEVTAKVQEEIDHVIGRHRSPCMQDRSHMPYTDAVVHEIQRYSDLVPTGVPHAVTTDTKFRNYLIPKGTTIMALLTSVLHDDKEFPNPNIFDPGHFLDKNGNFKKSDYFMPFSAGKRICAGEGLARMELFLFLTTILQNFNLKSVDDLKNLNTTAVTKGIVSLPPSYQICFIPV

hCyt P450 [6] = biological target: T3, hCyt P450 (Homo sapiens, UniProt P05177); assay: CYP inhibition; format: in vitro ADME; conditions: CYP 1A2-Phenacetin
T3 sequence (P05177 1-516): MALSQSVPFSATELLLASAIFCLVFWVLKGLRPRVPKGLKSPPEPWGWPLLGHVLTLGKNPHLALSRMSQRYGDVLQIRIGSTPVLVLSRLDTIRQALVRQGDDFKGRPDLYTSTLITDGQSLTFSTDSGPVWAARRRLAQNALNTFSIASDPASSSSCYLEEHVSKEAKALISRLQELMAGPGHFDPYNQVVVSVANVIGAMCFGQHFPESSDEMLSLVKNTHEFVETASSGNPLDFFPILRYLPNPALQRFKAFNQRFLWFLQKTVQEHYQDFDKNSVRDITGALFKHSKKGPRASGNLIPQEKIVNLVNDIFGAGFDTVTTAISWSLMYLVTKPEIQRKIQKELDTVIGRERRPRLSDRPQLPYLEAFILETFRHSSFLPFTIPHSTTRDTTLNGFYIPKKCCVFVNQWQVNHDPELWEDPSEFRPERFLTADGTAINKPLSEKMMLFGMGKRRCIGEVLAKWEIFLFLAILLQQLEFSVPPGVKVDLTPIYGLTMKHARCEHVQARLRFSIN

Stability in rat plasma = format: in vitro ADME
PK in mice plasma = format: in vivo; conditions: for Fabs, %: PO 3.18 mg/kg vs IV 1.12 mg/kg; for Vd: plasma, iv
Caco-2 = Caco-2 permeability assay; format: in vitro ADME
Description: as §1

[7] = Caco-2 permeability assay; format: in vitro ADME; conditions: human
Description: as §1

[8] = Table 39, PO plasma, 3.18 mg/kg
[9] = Table 41, IV plasma, 1.12 mg/kg
[10] = mouse, Table 39, PO plasma, 3.18 mg/kg
[11] = mouse, Table 41, IV plasma, 1.12 mg/kg

hCyt P450 (Homo sapiens, UniProt P08684), sequence (P08684 whole entry): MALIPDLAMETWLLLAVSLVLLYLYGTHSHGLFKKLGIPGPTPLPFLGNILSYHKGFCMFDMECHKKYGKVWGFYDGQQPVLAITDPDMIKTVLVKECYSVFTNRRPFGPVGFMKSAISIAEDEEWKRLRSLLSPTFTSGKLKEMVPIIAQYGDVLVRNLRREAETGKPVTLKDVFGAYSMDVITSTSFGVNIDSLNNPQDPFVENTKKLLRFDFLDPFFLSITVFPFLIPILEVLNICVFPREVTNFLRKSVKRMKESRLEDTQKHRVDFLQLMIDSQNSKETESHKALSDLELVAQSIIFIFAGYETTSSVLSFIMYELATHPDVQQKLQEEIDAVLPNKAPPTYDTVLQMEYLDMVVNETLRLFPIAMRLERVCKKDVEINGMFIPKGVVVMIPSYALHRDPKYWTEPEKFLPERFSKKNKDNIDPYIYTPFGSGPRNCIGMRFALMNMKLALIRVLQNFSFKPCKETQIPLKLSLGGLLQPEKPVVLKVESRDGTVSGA
hCyt P450 (Homo sapiens, UniProt P11712), sequence (P11712 whole entry): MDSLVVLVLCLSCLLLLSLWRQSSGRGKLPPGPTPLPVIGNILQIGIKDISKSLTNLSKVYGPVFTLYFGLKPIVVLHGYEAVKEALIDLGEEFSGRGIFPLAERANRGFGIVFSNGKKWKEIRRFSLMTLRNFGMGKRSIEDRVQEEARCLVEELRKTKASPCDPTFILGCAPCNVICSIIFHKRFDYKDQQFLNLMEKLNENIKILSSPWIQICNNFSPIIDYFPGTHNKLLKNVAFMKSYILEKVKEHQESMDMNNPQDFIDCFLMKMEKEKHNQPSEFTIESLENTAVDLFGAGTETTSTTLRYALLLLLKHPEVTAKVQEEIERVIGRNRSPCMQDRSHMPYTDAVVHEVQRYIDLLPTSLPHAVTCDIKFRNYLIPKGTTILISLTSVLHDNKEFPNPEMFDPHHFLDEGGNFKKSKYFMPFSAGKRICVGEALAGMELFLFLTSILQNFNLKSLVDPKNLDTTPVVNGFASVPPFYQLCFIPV
hCyt P450 (Homo sapiens, UniProt P10635), sequence (P10635 whole entry): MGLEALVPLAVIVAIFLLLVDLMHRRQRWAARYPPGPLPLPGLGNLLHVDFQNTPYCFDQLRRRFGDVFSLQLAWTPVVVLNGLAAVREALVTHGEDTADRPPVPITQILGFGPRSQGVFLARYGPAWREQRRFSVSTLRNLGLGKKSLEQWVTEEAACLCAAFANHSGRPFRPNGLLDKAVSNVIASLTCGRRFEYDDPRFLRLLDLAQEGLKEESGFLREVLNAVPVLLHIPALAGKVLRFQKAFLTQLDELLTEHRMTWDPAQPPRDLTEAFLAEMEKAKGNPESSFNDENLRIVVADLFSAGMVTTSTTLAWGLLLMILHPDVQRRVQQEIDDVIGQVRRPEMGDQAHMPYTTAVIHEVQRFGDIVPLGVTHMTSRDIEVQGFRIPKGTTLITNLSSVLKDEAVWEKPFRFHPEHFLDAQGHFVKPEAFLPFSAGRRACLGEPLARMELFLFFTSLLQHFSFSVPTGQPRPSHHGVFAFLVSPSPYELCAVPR
T1 sequence (P08183 whole entry): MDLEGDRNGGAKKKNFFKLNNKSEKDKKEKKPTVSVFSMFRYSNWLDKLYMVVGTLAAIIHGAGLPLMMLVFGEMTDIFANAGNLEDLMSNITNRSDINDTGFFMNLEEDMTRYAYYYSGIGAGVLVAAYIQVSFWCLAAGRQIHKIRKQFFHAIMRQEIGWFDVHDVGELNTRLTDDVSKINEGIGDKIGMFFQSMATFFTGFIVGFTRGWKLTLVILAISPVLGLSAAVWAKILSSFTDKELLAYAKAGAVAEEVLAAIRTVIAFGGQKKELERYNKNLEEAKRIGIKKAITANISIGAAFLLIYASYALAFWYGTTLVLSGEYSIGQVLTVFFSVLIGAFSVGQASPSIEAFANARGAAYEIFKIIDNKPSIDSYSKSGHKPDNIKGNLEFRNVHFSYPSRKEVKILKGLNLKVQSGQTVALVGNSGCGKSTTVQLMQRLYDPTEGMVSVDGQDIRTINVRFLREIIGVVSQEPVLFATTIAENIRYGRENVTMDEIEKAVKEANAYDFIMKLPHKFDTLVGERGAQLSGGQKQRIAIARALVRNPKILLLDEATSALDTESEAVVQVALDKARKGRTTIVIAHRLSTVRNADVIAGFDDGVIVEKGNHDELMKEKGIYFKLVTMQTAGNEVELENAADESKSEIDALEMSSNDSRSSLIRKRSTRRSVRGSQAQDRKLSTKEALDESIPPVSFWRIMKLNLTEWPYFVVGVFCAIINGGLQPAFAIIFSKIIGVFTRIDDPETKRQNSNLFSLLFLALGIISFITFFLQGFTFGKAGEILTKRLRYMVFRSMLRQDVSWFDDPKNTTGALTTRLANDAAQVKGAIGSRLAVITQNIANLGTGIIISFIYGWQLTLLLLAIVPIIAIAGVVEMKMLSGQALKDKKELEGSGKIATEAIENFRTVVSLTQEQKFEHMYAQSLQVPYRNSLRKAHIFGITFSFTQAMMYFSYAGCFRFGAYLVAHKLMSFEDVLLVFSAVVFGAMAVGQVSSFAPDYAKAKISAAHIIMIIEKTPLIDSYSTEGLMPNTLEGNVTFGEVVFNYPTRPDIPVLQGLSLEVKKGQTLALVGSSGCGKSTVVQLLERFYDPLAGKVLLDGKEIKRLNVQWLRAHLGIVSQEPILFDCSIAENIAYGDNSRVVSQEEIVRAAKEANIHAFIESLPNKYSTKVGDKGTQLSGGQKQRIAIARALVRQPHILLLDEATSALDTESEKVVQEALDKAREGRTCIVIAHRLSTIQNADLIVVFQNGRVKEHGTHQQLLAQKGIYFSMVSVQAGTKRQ

For COCCN[C@H]1CS(=O)(=O)C[C@@H]1S(=O)(=O)c1ccc(Cl)cc1 [Compound D136], the “stability in presence of rat liver microsomes” value [1] was “Extremely stable”, the “substrate for P-gp (MDR1)” value (P-gp (MDR1); Caco-2 asymmetry) was “not a substrate” and the efflux ratio (P-gp (MDR1); human, Caco-2, Mean Papp B-A / A-B, read-out: Asymmetry Index) was 1.5. For the same compound, the “%, Bound” value (PPB; Human) was 51.6%, the “%, Free (50% pI)” value (PPB; Human) was 65.3% and the “%, Free (recalc from 50% pI)” value (PPB; Human) was 48.4%. The “Permeability, %” value (PPB; Human) was 94%, the “%, Bound” value (PPB; Rat) was 52.0% and the “%, Free (50% pI)” value (PPB; Rat) was 64.9%. For the same compound, the “%, Free (recalc from 50% pI)” value (PPB; Rat) was 48.0%, the “Permeability, %” value (PPB; Rat) was 94% and the recovery (PPB; human) was 56.9%. For the same compound, the recovery (PPB; rat) was 122%, the solubility (pH solubility; pH 2) was 660 µg/mL (≈ 1790 µM) and the solubility (pH solubility; pH 4) was 220 µg/mL (≈ 598 µM). The solubility (pH solubility; pH 7) was 190 µg/mL (≈ 516 µM), the “solubility at pH2” value (pH solubility; pH2) was “soluble” and the “solubility at pH4” value (pH solubility; pH4) was “soluble”. The “solubility at pH7.4” value (pH solubility; pH7.4) was “soluble”, the CYP inhibition conclusion (hCyt P450 [2]) was “no inhi-” and the IC50 (hCyt P450 [2]) was > 10 µM. The CYP inhibition conclusion (hCyt P450 [3]; CYP 3A4-Midazolam) was “no inhi-”, the IC50 (hCyt P450 [3]; CYP 3A4-Midazolam) was > 10 µM and the CYP inhibition conclusion (hCyt P450 [3]; CYP 3A4-Testosterone) was “no inhi-”. The IC50 (hCyt P450 [3]; CYP 3A4-Testosterone) was > 10 µM, the CYP inhibition conclusion (hCyt P450 [4]) was “no inhi-” and the IC50 (hCyt P450 [4]) was > 10 µM. The CYP inhibition conclusion (hCyt P450 [5]) was “no inhi-”, the IC50 (hCyt P450 [5]) was > 10 µM and the CYP inhibition conclusion (hCyt P450 [6]) was “no inhi-”. For the same compound, the IC50 (hCyt P450 [6]) was > 10 µM, the “stability in rat plasma” value (Stability in rat plasma) was “Stable” and the K el (PK in mice plasma; [8]) was 1.2 h⁻¹. For the same compound, the T_½ (PK in mice plasma; [8]) was 34.8 min, the AUV last (PK in mice plasma; Table 40, IV plasma, 1.12 mg/kg) was 124 and the AUV last (PK in mice plasma; Table 40, PO plasma, 3.18 mg/kg) was 116. For the same compound, the “Fabs, %” value (PK in mice plasma; Table 40, from AUCinf) was 33.2%, the “Fabs, %” value (PK in mice plasma; Table 40, from AUV last) was 33.0% and the K el (PK in mice plasma; [9]) was 1.16 h⁻¹. The T_½ (PK in mice plasma; [9]) was 36 min, the Vd (PK in mice plasma; mouse, 1.12 mg/kg, Table 41, IV plasma, 1.12 mg/kg, read-out: Vss) was 2.41 L/kg and the Vd (PK in mice plasma; mouse, 1.12 mg/kg, Table 41, IV plasma, 1.12 mg/kg, read-out: Vz) was 7.74 L/kg. It also gave an AUC(0-inf) (PK in mice plasma; [10]) of 117 ng·h/mL, an AUC(0-t) (PK in mice plasma; [10]) of 116 ng·h/mL and a CL/F (PK in mice plasma; [10]) of 452 mL/min/kg. For the same compound, the Cmax (PK in mice plasma; [10]) was 89.6 ng/mL, the MRT inf (PK in mice plasma; [10]) was 64.8 min and the MRT last (PK in mice plasma; [10]) was 62.4 min. For the same compound, the Tmax (PK in mice plasma; [10]) was 15 min, the Vd/F (PK in mice plasma; mouse, Table 39, PO plasma, 3.18 mg/kg, read-out: Vz/F) was 22.5 L/kg and the AUC(0-inf) (PK in mice plasma; mouse, Table 40, IV plasma, 1.12 mg/kg) was 124 ng·h/mL. It also gave an AUC(0-t) (PK in mice plasma; [11]) of 124 ng·h/mL, a C0 (PK in mice plasma; [11]) of 770 ng/mL and a Cmax (PK in mice plasma; [11]) of 390 ng/mL. It also gave an MRT inf (PK in mice plasma; [11]) of 16.2 min, an MRT last (PK in mice plasma; [11]) of 15 min and a Tmax (PK in mice plasma; [11]) of 4.98 min. For the same compound, the clearance (PK in mice plasma; [11]) was 150 mL/min/kg, the Caco-2 permeability (Caco-2) was “highly permeable” and the “Papp A-B” value (Caco-2; individual replicates) was 36.0 10^−6 cm/s and 33.1 10^−6 cm/s. The “Papp B-A” value (Caco-2; individual replicates) was 54.6 10^−6 cm/s and 50.9 10^−6 cm/s, the Papp A→B ([7]; Caco-2, Mean) was 34.2 ×10⁻⁶ cm/s and the Papp B→A ([7]; Caco-2, Mean) was 51.1 ×10⁻⁶ cm/s. The Papp A→B ([7]; Caco-2, individual replicates) was 33.6 ×10⁻⁶ cm/s and the Papp B→A ([7]; Caco-2, individual replicates) was 47.9 ×10⁻⁶ cm/s.

Source: patent publication US11377442B2, “Small molecule agonists and antagonists of NR2F6 activity” (ZANDER THERAPEUTICS, INC., priority 2016, dated 2022)
